Where “and” joins values, the source holds several entries; their conditions need not be identical. Identical values can stand only once. Entries after “also recorded” stand apart in the source; their conditions may differ.
Key:
GLUT1W388A = target: T1, GLUT1W388A (Homo sapiens, UniProt P11166, W388A); test: entrance counter-flow transport assay, glucose transport by GLUT1W388A proteoliposomes; assay type: biochemical; details: any tested concentration, up to 20 mM
T1 construct: Full length DNA was subcloned into pFastBac1 (Life Technologies) vector with a N-terminal hexahistidine tag; hexahistidine (thrombin-cleavable) (N, cleaved yes); made in house; host or cells: Sf21 insect cells (baculovirus, pFastBac1)
T1 sequence (P11166 1-492 W388A): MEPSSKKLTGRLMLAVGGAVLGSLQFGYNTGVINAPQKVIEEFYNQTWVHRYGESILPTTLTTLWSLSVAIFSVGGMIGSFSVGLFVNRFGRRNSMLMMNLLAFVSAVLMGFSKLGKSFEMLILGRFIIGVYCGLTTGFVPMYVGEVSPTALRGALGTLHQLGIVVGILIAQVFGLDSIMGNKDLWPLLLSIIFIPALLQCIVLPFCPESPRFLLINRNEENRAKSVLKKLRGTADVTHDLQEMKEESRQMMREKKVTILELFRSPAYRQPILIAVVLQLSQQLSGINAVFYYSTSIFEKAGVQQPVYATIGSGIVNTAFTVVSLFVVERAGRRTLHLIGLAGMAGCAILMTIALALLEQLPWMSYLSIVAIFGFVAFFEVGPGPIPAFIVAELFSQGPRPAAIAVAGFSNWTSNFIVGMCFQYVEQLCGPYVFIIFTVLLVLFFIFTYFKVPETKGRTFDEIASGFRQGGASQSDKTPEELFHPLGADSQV
Procedure: We expressed and purified GLUT1W388A and GLUT5A396W. Purified mutant proteins were reconstituted into proteoliposomes and activity was determined by entrance counter-flow transport assay.
cDNAs of GLUT1 and GLUT5 were purchased from Open Biosystems (GE Healthcare). Full length DNA was subcloned into pFastBac1 (Life Technologies) vector with a N-terminal hexahistidine tag. Bacmids were generated in DH10Bac E. coli cells (Life Technologies). Baculoviruses were produced using Cellfectin II Reagent and amplified in Sf21 insect cells (Life Technologies). Cells were maintained at 26 °C, and P1 (10^6 pfu/mL) was collected from infected cells after 72 hours. Sf21 cells were propagated in HyClone SFX-Insect media (GE Healthcare), supplemented with 5% fetal bovine serum (Biowest), antibiotics (100 units/mL Penicillin G and 100 μg/mL streptomycin sulfate) and amphotericin B (2.5 μg/mL). For recombinant protein expression, Sf21 cells in suspension culture at 2 × 10^6 cells/ml were infected with P3 viral stock (10^8 pfu/mL), at an MOI of 1.0 pfu/cell. Four days after viral infection, cells from 2 L culture were collected by centrifugation at 2,000 × g and 25 °C. […]

human GLUT5 = target: T2, human GLUT5 (Homo sapiens, UniProt P22732); test: entrance counter-flow transport assay, GLUT5-mediated fructose transport in proteoliposomes; assay type: biochemical
T2 construct: Full length DNA was subcloned into pFastBac1 (Life Technologies) vector with a N-terminal hexahistidine tag; hexahistidine (thrombin-cleavable) (N, cleaved yes); made in house; host or cells: Sf21 insect cells (baculovirus, pFastBac1)
T2 sequence (P22732 1-501): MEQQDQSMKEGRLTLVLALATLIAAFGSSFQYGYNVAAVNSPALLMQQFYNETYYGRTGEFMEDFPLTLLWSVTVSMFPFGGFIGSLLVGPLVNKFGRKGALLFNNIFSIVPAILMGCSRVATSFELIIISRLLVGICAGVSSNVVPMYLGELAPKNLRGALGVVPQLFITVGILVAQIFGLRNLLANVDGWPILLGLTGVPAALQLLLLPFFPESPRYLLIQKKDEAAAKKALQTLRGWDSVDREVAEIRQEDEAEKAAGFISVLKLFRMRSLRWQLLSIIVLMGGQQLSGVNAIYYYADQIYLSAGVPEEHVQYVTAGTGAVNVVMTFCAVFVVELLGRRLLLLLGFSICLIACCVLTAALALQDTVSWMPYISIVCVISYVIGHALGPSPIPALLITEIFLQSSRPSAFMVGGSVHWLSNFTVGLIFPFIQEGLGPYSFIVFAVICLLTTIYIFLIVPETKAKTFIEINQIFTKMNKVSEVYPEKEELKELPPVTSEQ
Description: Human GLUT1 and GLUT5 were expressed recombinantly in insect cell culture. The purified proteins were reconstituted into proteoliposomes. To measure the inhibition of GLUT1 or GLUT5 transport activity we used entrance counter-flow transport assay.
Proteoliposomes were generated according to the protocol from[30] with minor modifications. Liposomes were produced from a 95/5% (w/w) mix of soy phosphatidylcholine and cholesterol (Avanti Polar Lipids). Briefly, hexane-washed and vacuum-dried lipids were resuspended to 20 mg/ml in 100 mM KPi (pH 7.5), and then subjected to 11 freeze-and-thaw cycles in liquid nitrogen and room temperature water. The lipid mixture was extruded through a 0.1 μm polycarbonate filter. Prepared liposomes were destabilized with 4 mM Triton X-100 and mixed with purified protein in a 100:1 (w/w) ratio in 100 mM KPi (pH 7.5) 20% (v/v) glycerol, 200 mM (glucose or fructose). Detergent was removed by several additions of SM2 BioBeads (BioRad) and incubated overnight at 4 °C. After filtering out the BioBeads, proteoliposomes were diluted with 100 mM KPi (pH 7.5) 200 mM (glucose or fructose), and then collected by ultracentrifugation, at 200,000 × g and 4 °C, for 1 hour. The proteoliposomes pellet was resuspended in the above buffer so that O.D.600nm was ~30.
To measure hexose transport, we utilized entrance counter-flow assay. Transport was performed in a volume of 100 μL of 100 mM KPi (pH 7.5) buffer containing radioactive ^14C-hexose (4 μM fructose or 5 μM glucose) with inhibitors added before initiation of transport. […] The reaction was started by the addition of 3 μL concentrated proteoliposomes to the above solution and incubated at room temperature; the transport was stopped after one minute by addition of ice-chilled quench buffer [100 mM KPi (pH 5.5) and 100 mM LiCl]. The solution was filtered through a 0.4 μm pore size cellulose nitrate membrane filter (Whatman), and the filter was washed three times with quench buffer. The membrane filter was placed into a vial filled with BioSafe II scintillation liquid (Research Products International Corp.), and radioactivity was quantified with LS 6500 scintillation counter (Beckman). […] Data is presented as relative activity normalized to radioactivity of no inhibitor added as 100% and empty proteoliposomes as 0%. Kinetic parameters were fitted by nonlinear algorithm plots using Prism (GraphPad Software).

**Q.** `C=C1C[C@@]23CC[C@H]4[C@@](C)(CCC[C@@]4(C)C(=O)O[C@@H]4O[C@H](CO)[C@@H](O)[C@H](O)[C@H]4O)[C@@H]2CC[C@]1(O[C@@H]1O[C@H](CO)[C@@H](O)[C@H](O)[C@H]1O)C3` [Rub, Rubusoside] was tested. Which “inhibition of glucose transport by GLUT1W388A” value (GLUT1W388A) did it give?
**A.** not inhibited; also recorded: did not inhibit

**Q.** What about the “inhibition of GLUT5 fructose transport activity” value (human GLUT5; added at 20 mM) of the same compound?
**A.** reducing activity to background levels

**Q.** What about the IC50 (human GLUT5; entrance counter-flow) of the same compound?
**A.** 6.7 mM and ~5 mM and 5 mM
